Assay results as given in patent US12070594B2, “Biomedical electrode with anti-microbial properties” (Compass Health Brands Corp., priority 2018, dated 2024).

Columns and labels:
Assay type in all cases: cell-based
[1] = system: S. aureus ATCC 33592; test: Antibiotic Susceptibility of the Test Microorganisms
[2] = system: S. aureus ATCC 25923; test: Antibiotic susceptibility, reference microorganism
[3] = system: A. baumannii ATCC BAA-1605; test: Antibiotic Susceptibility of the Test Microorganisms
[4] = system: E. cloacae ATCC BAA-2468; test: as above
[5] = system: P. aeruginosa ATCC 27853; test: Antibiotic susceptibility, reference microorganism
[6] = system: E. coli ATCC 25922; test: Antibiotic susceptibility, reference microorganism
[7] = system: E. faecalis ATCC 51575; test: Antibiotic Susceptibility of the Test Microorganisms
[8] = susceptibility ≥21 mm, resistance ≤17 mm (CLSI M100)

| SMILES | Test Microorganism Demonstrates Resistance? [1] | Test Microorganism Diameter ([1]; susceptibility ≥13 mm, resistance ≤10 mm (CLSI M100)) | Reference Microorganism Diameter [2] | Test Microorganism Demonstrates Resistance? [3] | Test Microorganism Diameter [3, 8] | Test Microorganism Demonstrates Resistance? [4] | Test Microorganism Diameter [4, 8] | Reference Microorganism Diameter [5] | Reference Microorganism Diameter [6] | Test Microorganism Demonstrates Resistance? [7] | Test Microorganism Diameter ([7]; susceptibility ≥17 mm, resistance ≤14 mm (CLSI M100)) |
| --- | --- | --- | --- | --- | --- | --- | --- | --- | --- | --- | --- |
| Cc1onc(-c2ccccc2)c1C(=O)N[C@@H]1C(=O)N2[C@@H]1SC(C)(C)[C@@H]2C(=O)O [Oxocillin] | Yes | 9.2 mm | 51.9 mm |  |  |  |  |  |  |  |  |
| CCN1CCN(C(=O)N[C@@H](C(=O)N[C@@H]2C(=O)N3[C@@H]2SC(C)(C)[C@@H]3C(=O)O)c2ccccc2)C(=O)C1=O [Piperacillin] |  |  |  | Yes | 6.5 mm | Yes | 6.5 mm | 26.2 mm | 25.3 mm |  |  |
| CN[C@H](CC(C)C)C(=O)N[C@H]1C(=O)N[C@@H](CC(N)=O)C(=O)N[C@H]2C(=O)N[C@H]3C(=O)N[C@H](C(=O)N[C@H](C(=O)O)c4cc(O)cc(O)c4-c4cc3ccc4O)[C@H](O)c3ccc(c(Cl)c3)Oc3cc2cc(c3O[C@@H]2O[C@H](CO)[C@@H](O)[C@H](O)[C@H]2O[C@H]2C[C@](C)(N)[C@H](O)[C@H](C)O2)Oc2ccc(cc2Cl)[C@H]1O [Vancomycin] |  |  | 21.2 mm |  |  |  |  |  |  | Yes | 11.3 mm |
